# Results as given in patent US20100267561A1, “HERBICIDAL PYRIDAZINONE DERIVATIVES” (priority 2007, published 2010).
# How the values were obtained:
# Assay in all cases: Test B pre-/postemergence plant response
# Type in all cases: in vivo
# [1] = system: surinam grass (Brachiaria decumbens); settings: for Surinam Grass plant response rating: 8 g ai/ha
# Procedure, shortened: (§1)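 Seeds were sown and sprayed preemergence, while plants at 2 to 18 cm (1- to 4-leaf stage) got postemergence sprays. Compounds were formulated in a non-phytotoxic solvent mixture with surfactant. After 13 to 15 days in a greenhouse, injury was rated visually against untreated controls, 0 (no effect) to 100 (complete control).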
# [2] = system: common ragweed (Ambrosia elation); settings: for Ragweed plant response rating: 8 g ai/ha
# Procedure, shortened: as §1
# [3] = system: cocklebur (Xanthium strumarium); settings: for Cocklebur plant response rating: 8 g ai/ha
# Procedure, shortened: as §1
# [4] = system: downy bromegrass (Bromus tectorum); settings: for Bromegrass, Downy plant response rating: 8 g ai/ha
# Procedure, shortened: as §1
# [5] = system: green foxtail (Setaria viridis); settings: for Foxtail, Green plant response rating: 8 g ai/ha
# Procedure, shortened: as §1
# corn (Zea mays) = settings: for Corn plant response rating: 8 g ai/ha
# Procedure, shortened: as §1
# [6] = system: yellow nutsedge (Cyperus esculentus); settings: for Nutsedge, Yellow plant response rating: 8 g ai/ha
# Procedure, shortened: as §1
# wild oat (Avena fatua) = settings: for Oat, Wild plant response rating: 8 g ai/ha
# Procedure, shortened: as §1
# [7] = system: eastern black (E.B.) nightshade (Solanum ptycanthum); settings: Preemergence
# Procedure, shortened: as §1
# [8] = system: Russian thistle (Salsola iberica); settings: Preemergence
# Procedure, shortened: as §1
# [9] = system: woolly cupgrass (Eriochloa villosa); settings: for Cupgrass, Woolly plant response rating: 8 g ai/ha
# Procedure, shortened: as §1
# [10] = system: wheat (Triticum aestivum); settings: for Wheat plant response rating: 8 g ai/ha
# Procedure, shortened: as §1
# [11] = system: blackgrass (Alopecurus myosuroides); settings: for Blackgrass plant response rating: 8 g ai/ha
# Procedure, shortened: as §1
# [12] = system: common (oilseed) sunflower (Helianthus annuus); settings: Preemergence
# Procedure, shortened: as §1
# [13] = Postemergence, 16 g ai/ha, scale 0 to 100
# [14] = Postemergence, 62 g ai/ha, scale 0 to 100, 0 no effect, 100 complete control
# [15] = Preemergence, 16 g ai/ha, scale 0 to 100 (0 no effect, 100 complete control)
# [16] = Preemergence, 31 g ai/ha, scale 0 to 100 (0 no effect, 100 complete control)
# [17] = Preemergence, 62 g ai/ha, 0 to 100 scale, 0 no effect, 100 complete control
# [18] = Postemergence, 31 g ai/ha, scale 0 to 100, 0 no effect, 100 complete control
# [19] = Preemergence, 62 g ai/ha, scale 0 to 100
# [20] = Preemergence, 31 g ai/ha, 0 to 100 scale, 0 no effect, 100 complete control
# [21] = 16 g ai/ha, scale 0 to 100 (0 no effect, 100 complete control)
# [22] = 31 g ai/ha, scale 0 to 100 (0 no effect, 100 complete control)
smiles,measurement,setting,value
CCCc1cc(-c2ccc(Cl)cc2)nn1-c1c(O)cnn(C)c1=O [Compound 43],Surinam Grass plant response rating,"[1]; postemergence, 0-100 scale",65
same,"Plant response rating, Surinam Grass",[1]; [13],95
same,"Plant response rating, Surinam Grass",[1]; [14],100
same,"Plant response rating, Surinam Grass",[1]; [15],90
same,"Plant response rating, Surinam Grass",[1]; [16],100
same,"Plant response rating, Surinam Grass",[1]; [17],100
same,Surinam Grass plant response rating,"[1]; Preemergence, scale 0 to 100",0
same,Ragweed plant response rating,"[2]; postemergence, 0-100 scale",0
same,"Plant response rating, Ragweed",[2]; [13],0
same,"Plant response rating, Ragweed",[2]; [18],0
same,"Plant response rating, Ragweed",[2]; [14],0
same,"Plant response rating, Ragweed",[2]; [15],0
same,"Plant response rating, Ragweed",[2]; [16],0
same,"Plant response rating, Ragweed",[2]; [19],0
same,Ragweed plant response rating,"[2]; Preemergence, scale 0 to 100",0
same,Cocklebur plant response rating,"[3]; postemergence, 0-100 scale",0
same,"Plant response rating, Cocklebur",[3]; [13],0
same,"Plant response rating, Cocklebur",[3]; [18],0
same,"Plant response rating, Cocklebur",[3]; [14],0
same,"Plant response rating, Cocklebur",[3]; [15],0
same,"Plant response rating, Cocklebur",[3]; [20],0
same,"Plant response rating, Cocklebur",[3]; [19],0
same,Cocklebur plant response rating,"[3]; Preemergence, scale 0 to 100",0
same,"Bromegrass, Downy plant response rating","[4]; postemergence, 0-100 scale",40
same,"Plant response rating, Bromegrass, Downy",[4]; [13],45
same,"Plant response rating, Bromegrass, Downy",[4]; [18],60
same,"Plant response rating, Bromegrass, Downy",[4]; [14],65
same,"Plant response rating, Bromegrass, Downy",[4]; [15],0
same,"Plant response rating, Bromegrass, Downy",[4]; [20],70
same,"Plant response rating, Bromegrass, Downy",[4]; [19],80
same,"Bromegrass, Downy plant response rating","[4]; Preemergence, scale 0 to 100",0
same,"Foxtail, Green plant response rating","[5]; postemergence, 0-100 scale",60
same,"Plant response rating, Foxtail, Green",[5]; [13],75
same,"Plant response rating, Foxtail, Green",[5]; [18],100
same,"Plant response rating, Foxtail, Green",[5]; [14],100
same,"Plant response rating, Foxtail, Green",[5]; [15],100
same,"Plant response rating, Foxtail, Green",[5]; [20],100
same,"Plant response rating, Foxtail, Green",[5]; [19],100
same,"Foxtail, Green plant response rating","[5]; Preemergence, scale 0 to 100",100
same,Corn plant response rating,"corn (Zea mays); postemergence, 0-100 scale",80
same,"Plant response rating, Corn",corn (Zea mays); [13],85
same,"Plant response rating, Corn",corn (Zea mays); [18],85
same,"Plant response rating, Corn",corn (Zea mays); [14],100
same,"Plant response rating, Corn",corn (Zea mays); [15],70
same,"Plant response rating, Corn",corn (Zea mays); [20],85
same,"Plant response rating, Corn",corn (Zea mays); [19],100
same,Corn plant response rating,"corn (Zea mays); Preemergence, scale 0 to 100",0
same,"Nutsedge, Yellow plant response rating","[6]; postemergence, 0-100 scale",0
same,"Plant response rating, Nutsedge, Yellow",[6]; [13],0
same,"Plant response rating, Nutsedge, Yellow",[6]; [18],0
same,"Plant response rating, Nutsedge, Yellow",[6]; [14],0
same,"Plant response rating, Nutsedge, Yellow",[6]; [15],0
same,"Plant response rating, Nutsedge, Yellow",[6]; [16],0
same,"Plant response rating, Nutsedge, Yellow",[6]; [19],0
same,"Nutsedge, Yellow plant response rating","[6]; Preemergence, scale 0 to 100",0
same,"Oat, Wild plant response rating","wild oat (Avena fatua); postemergence, 0-100 scale",95
same,"Plant response rating, Oat, Wild",wild oat (Avena fatua); [13],100
same,"Plant response rating, Oat, Wild",wild oat (Avena fatua); [18],100
same,"Plant response rating, Oat, Wild",wild oat (Avena fatua); [14],100
same,"Plant response rating, Oat, Wild",wild oat (Avena fatua); [15],90
same,"Plant response rating, Oat, Wild",wild oat (Avena fatua); [16],95
same,"Plant response rating, Oat, Wild",wild oat (Avena fatua); [19],95
same,"Oat, Wild plant response rating","wild oat (Avena fatua); Preemergence, scale 0 to 100",70
same,"Plant response rating, Nightshade, E. B.",[7]; [21],0
same,"Plant response rating, Nightshade, E. B.",[7]; [22],0
same,"Plant response rating, Nightshade, E. B.","[7]; 62 g ai/ha, scale 0 to 100",0
same,"Nightshade, E. B. plant response rating","[7]; 8 g ai/ha, scale 0 to 100",0
same,"Plant response rating, Russian Thistle",[8]; [21],0
same,"Plant response rating, Russian Thistle",[8]; [22],0
same,"Plant response rating, Russian Thistle","[8]; 62 g ai/ha, scale 0 to 100",0
same,Russian Thistle plant response rating,"[8]; 8 g ai/ha, scale 0 to 100",0
same,"Cupgrass, Woolly plant response rating","[9]; postemergence, 0-100 scale",80
same,"Plant response rating, Cupgrass, Woolly",[9]; [13],90
same,"Plant response rating, Cupgrass, Woolly",[9]; [18],95
same,"Plant response rating, Cupgrass, Woolly",[9]; [14],95
same,"Plant response rating, Cupgrass, Woolly",[9]; [15],60
same,"Plant response rating, Cupgrass, Woolly",[9]; [20],98
same,"Plant response rating, Cupgrass, Woolly",[9]; [19],100
same,"Cupgrass, Woolly plant response rating","[9]; Preemergence, scale 0 to 100",0
same,Wheat plant response rating,"[10]; postemergence, 0-100 scale",30
same,"Plant response rating, Wheat",[10]; [13],70
same,"Plant response rating, Wheat",[10]; [14],100
same,"Plant response rating, Wheat",[10]; [15],10
same,"Plant response rating, Wheat",[10]; [16],15
same,"Plant response rating, Wheat",[10]; [17],80
same,Wheat plant response rating,"[10]; Preemergence, scale 0 to 100",0
same,Blackgrass plant response rating,"[11]; postemergence, 0-100 scale",85
same,"Plant response rating, Blackgrass",[11]; [13],85
same,"Plant response rating, Blackgrass",[11]; [18],95
same,"Plant response rating, Blackgrass",[11]; [14],100
same,"Plant response rating, Blackgrass",[11]; [15],95
same,"Plant response rating, Blackgrass",[11]; [20],100
same,"Plant response rating, Blackgrass",[11]; [19],100
same,Blackgrass plant response rating,"[11]; Preemergence, scale 0 to 100",70
same,"Plant response rating, Sunflower",[12]; [21],0
same,"Plant response rating, Sunflower",[12]; [22],0
same,"Plant response rating, Sunflower","[12]; 62 g ai/ha, scale 0 to 100",0
same,Sunflower plant response rating,"[12]; 8 g ai/ha, scale 0 to 100",0
